# According to patent US10786690B2, “Amide derivatives of polycaffeoylquinic acids, process for producing same and uses thereof” (TEMISIS, priority 2016, dated 2020):
# Values joined by “and” are separate entries in the source; they are usually repeats but may differ in a detail not shown here. Identical values can stand only once.
# Key:
# [1] = test system: Normal Human Dermal Fibroblasts (NHDFs); test: qRT-PCR gene expression in Normal Human Dermal Fibroblasts; type: cell-based; details: 4 μM, 24 h
# Procedure: The study consisted in measuring the effects of compound PAT1657 by qRT-PCR on the expression of 94 genes involved in dermal biology, connective tissue remodelling and ageing.
# The protocol consisted in applying compound PAT1657 for 24 h in the culture medium of Normal Human Dermal Fibroblasts (NHDFs) in monolayer and analysing the various RNA populations to identify the genes differentially expressed by real-time qRT-PCR.
# The study was carried out on Normal Human Dermal Fibroblasts (NHDFs) (ATCC, CRL-2522, origin: foreskin) at about 40% of their proliferative potential and grown in monolayer in DMEM medium (Invitrogen, 31885-049) containing antibiotics (penicillin/streptomycin, Invitrogen, 15140-122) but not containing serum. The cells were maintained in a humid atmosphere at 37° C. containing 5% CO2.
# Compound PAT1657 was applied in the NHDF culture medium for 24 h (n=3). Controls treated with the solvent DMSO (1% for the NHDFs) in which the active agents were prepared were also analysed. At the end of the treatments, total RNA populations were extracted, their integrity was analysed by capillary electrophoresis, and gene expression differences were analysed by qRT-PCR using 96-well TaqMan microfluidic cards (custom produced by Applied Biosystems), targeting key functions of the dermis and epidermis. The technical details of the implementation of the present paragraph are explained in the “Materials and methods” section of Example 1 of patent application FR1650745 and more specifically the sub-section titled “Analysis of gene expression changes” (page 26 line 22 to page 28 line 9).
# The gene expression changes induced by the active agents are expressed as relative quantity (RQ) based on the respective DMSO solvent controls.
# [2] = test system: LTB4; test: LTB4 production by NHEKs in the inflammatory state (arachidonic acid + calcium ionophore), ELISA; type: cell-based, human; details: arachidonic acid 1 μM + calcium ionophore A23187 2 h, compounds 50 μM, NDGA 2 μM, relative to induced control
# Procedure: The study was carried out on Normal Human Epidermal Keratinocytes (NHEKs) (Lonza, CC-2507, origin: foreskin) in monolayer culture in Epilife medium (Invitrogen, M-EPI-500-A) containing the components of the Human Keratinocyte Growth Supplement (HKGS) mixture (Invitrogen, S-001-K) added separately, except hydrocortisone having anti-inflammatory properties.
# The induction of LTB4 production having a very fast kinetics, the scheme was adapted. In this case, the inflammatory state was induced for 2 h by applying arachidonic acid (a.a./1 μM/ethanol) combined with calcium ionophore A23187 (2 μM/DMSO). Nordihydroguaiaretic acid (NDGA) was used as reference molecule (2 μM/ethanol).
# The effect of the compounds was studied by applying them to the keratinocyte culture medium 2 h prior to induction of the inflammatory state as well as during induction (2 h for LTB4, 24 h for IL-8, PGE2, IL-6 and TNF-α).
# Each condition was carried out in triplicate cultures and the supernatants were recovered at the end of the various treatments.
# Quantification of the various inflammatory mediators was carried out with specific kits, based on a standard curve, according to the instructions provided by the kits' suppliers, R&D Systems and Cayman Chemical.
# Before induction of the inflammatory state, the NHEKs were treated with the compounds and reference molecules for 2 h. The inflammatory state was then induced according to the conditions described in the methodology section, the culture supernatants were collected, and the various inflammatory mediators were quantified by the ELISA technique.
# The effects of the compounds on LTB4 production are shown in FIG. 8 and are expressed as a percentage of the treatment with arachidonic acid (a.a.) combined with calcium ionophore A23187 set at 100%.
compound,measurement,setting,value
"CCCCCCCCNC(=O)[C@]1(O)C[C@@H](OC(=O)/C=C/c2ccc(O)c(O)c2)[C@@H](O)[C@H](OC(=O)/C=C/c2ccc(O)c(O)c2)C1 [PAT1657, (2E,2′E)-((1R,2S,3R,5S)-2,5-dihydroxy-5-(octylcarbamoyl)cyclohexane-1,3-diyl) bis(3-(3,4-dihydroxyphenyl)acrylate)]",expression of gene GSS,[1]; in words only,overexpressed
same,"RQ (relative expression), gene CCL5",[1]; relative to 1% DMSO vehicle,28.13
same,"RQ (relative expression), gene DDIT3",[1]; relative to 1% DMSO vehicle,2.81
same,"RQ (relative expression), gene FTL",[1]; relative to 1% DMSO vehicle,2.1 and 2.08
same,"RQ (relative expression), gene GADD45A",[1]; relative to 1% DMSO vehicle,3.68
same,"RQ (relative expression), gene KLF4",[1]; relative to 1% DMSO vehicle,1.9 and 1.93
same,"RQ (relative expression), gene MMP1",[1]; relative to 1% DMSO vehicle,6.9 and 6.91
same,"RQ (relative expression), gene MMP3",[1]; relative to 1% DMSO vehicle,3.1 and 3.12
same,"RQ (relative expression), gene MTNR1A",[1]; relative to 1% DMSO vehicle,1.46
same,"RQ (relative expression), gene NANOG",[1]; relative to 1% DMSO vehicle,4.7 and 4.67
same,"RQ (relative expression), gene NOX1",[1]; relative to 1% DMSO vehicle,1.46
same,"RQ (relative expression), gene POU5F1",[1]; relative to 1% DMSO vehicle,5.1
same,"RQ (relative expression), gene RBP2",[1]; relative to 1% DMSO vehicle,1.46
same,"RQ (relative expression), gene RORA",[1]; relative to 1% DMSO vehicle,4.4 and 4.41
same,"RQ (relative expression), gene SIRT1",[1]; relative to 1% DMSO vehicle,2.02
same,"RQ (relative expression), gene SOD2",[1]; relative to 1% DMSO vehicle,4.7 and 4.66
same,"RQ (relative expression), gene TXNRD1",[1]; relative to 1% DMSO vehicle,2.8 and 2.82
same,"RQ (relative expression), gene VEGFA",[1]; relative to 1% DMSO vehicle,8.3 and 8.28
same,LTB4 production,[2],"block/decrease, in a very highly significant manner"
